In patent publication US20220267719A1, “METHOD FOR LOADING OF MICROORGANISMS ON MULTIPHASE BIOMATERIALS” (priority 2019, published 2022):

Assays:
S. aureus [1] = test: Agar well diffusion test without BNC; type: cell-based, Staphylococcus aureus
Procedure: For the agar diffusion test the OD600 of B. megaterium and B. subtilis was adjusted to 0.1 McFarland using sterilized saline NaCl 0.9%. The OD600 of S. aureus was adjusted to 0.5 McFarland using sterilized saline NaCl 0.9%. 20 μl of S. aureus was spread on the surface of Mueller-Hinton agar plate by a sterilized glass spreader. The wells are […] on the agar plate using the back side of a 1 ml pipette tip. A small volume of Mueller-Hinton agar was melted in boiling water bath, then 100 μl of it was used to close the bottom of each created well. After solidification of the agar in the bottom of the wells, the wells were filled with 100 μl of: Negative control, sterilized saline NaCl 0.9%, Positive control, gentamicin 300 μg/ml, B. megaterium or B. subtilis-free supernatant, B. megaterium or B. subtilis suspension.

S. aureus [2] = test: Agar diffusion test with loaded BNC fleeces; type: cell-based, Staphylococcus aureus
Procedure: The evaluation of the antibacterial activity of B. subtilis and B. megaterium loaded-BNC against gram-positive S. aureus was determined by an agar diffusion test. Therefore, the bacterial suspensions of B. subtilis and S. aureus were prepared in TSB broth medium as described before. […] 3 BNC fleeces were loaded using B. subtilis suspension in TSB medium, and 3 BNC fleeces were loaded using B. subtilis suspension in saline. Further 3 BNC fleeces were loaded using the B. subtilis free-supernatant, 3 BNC fleeces were loaded with gentamycin as positive control, and 3 BNC fleeces with isotonic saline as negative control. The OD600 of S. aureus was adjusted to 0.5 McFarland using sterilized saline NaCl 0.9% and the optical density spectrophotometer (Biophotometer) was determined. 20 μl of S. aureus was spread on the surface of Mueller-Hinton agar plate by a sterilized glass spreader. The last control and loaded BNC fleeces were added onto surface of the Mueller Hinton agar: 1. Negative control: saline-loaded BNC 2. Positive control: gentamicin-loaded BNC 3. B. subtilis-loaded BNC in TSB medium 4. B. subtilis-loaded BNC in saline 5. B. subtilis-free supernatant-loaded BNC.

## gentamicin [Gentamycin]
S. aureus [1]
  inhibition effect on S. aureus by diffusion test, Without BNC: + (by detection of inhibition zone > 2 mm)
S. aureus [2]; loaded on BNC by injection
  inhibition effect on S. aureus by diffusion test, on BNC - injection technique: + (by detection of inhibition zone > 2 mm)
S. aureus [2]; loaded on BNC by spray
  inhibition effect on S. aureus by diffusion test, on BNC - spray technique: + (by detection of inhibition zone > 2 mm)
S. aureus [2]; loaded on BNC by vortex
  inhibition effect on S. aureus by diffusion test, on BNC - vortex technique: + (by detection of inhibition zone > 2 mm)
